Columns and labels:
FZD9 = molecular target: T1, FZD9 (Homo sapiens, UniProt O00144); test: NanoBRET screen HiBiT-FZD9 in HEK293; type: binding; settings: FZD9
T1 construct: purchased Promega (in-house HiBiT-GPCR construct library, NanoBRET)
T1 sequence (O00144 23-591): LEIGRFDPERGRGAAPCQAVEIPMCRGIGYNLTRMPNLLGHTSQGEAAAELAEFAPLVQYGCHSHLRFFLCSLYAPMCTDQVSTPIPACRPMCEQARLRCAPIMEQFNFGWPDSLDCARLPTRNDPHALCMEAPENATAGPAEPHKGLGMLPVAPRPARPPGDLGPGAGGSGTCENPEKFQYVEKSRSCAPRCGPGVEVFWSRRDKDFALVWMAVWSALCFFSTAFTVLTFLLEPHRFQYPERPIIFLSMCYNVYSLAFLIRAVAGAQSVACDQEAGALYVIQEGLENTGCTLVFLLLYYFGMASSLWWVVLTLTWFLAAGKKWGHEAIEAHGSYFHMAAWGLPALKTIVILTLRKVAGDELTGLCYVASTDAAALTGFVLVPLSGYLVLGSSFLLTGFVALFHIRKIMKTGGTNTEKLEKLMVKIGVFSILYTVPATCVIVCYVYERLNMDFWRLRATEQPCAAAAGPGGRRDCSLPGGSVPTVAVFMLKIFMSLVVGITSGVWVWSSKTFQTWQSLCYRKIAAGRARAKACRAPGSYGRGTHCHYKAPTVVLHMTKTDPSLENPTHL
Description: (§1) Each tracer candidate was screened across the entire library of HiBiT-GPCR constructs using NanoBRET as the detection modality. As depicted in Figure 4A, the specificity of interactions was evaluated through decrease in BRET due to competitive displacement of a bound tracer by excess parental compound. Each tracer was analyzed for binding to each HiBiT-GPCR fusion in the absence and in the presence of competing parental compound. Briefly, HEK293 cells were transfected with HiBiT-GPCR constructs diluted into promoterless DNA to reduce expression and maximize translocation to the cell surface. Each tracer candidate was then screened at concentrations of 1 μM and 0.1 μM across cells expressing these fusions. Cells were treated for 1.5 h with tracer either alone or in the presence of 20 μM competing parental compound (i.e., control). BRET was measured upon addition of purified LgBiT and subsequent complementation with HiBiT genetically fused to a GPCR. The specificity of interactions was assessed through a decrease in BRET signal due to competitive displacement of the bound tracer. To further gauge the robustness of these interactions, the fold response over the control (i.e., BRETtracer/BRETcontrol) was calculated. We chose a 1.5-fold response, which translates to ≥7-fold signal over noise as the minimal threshold required to score an interaction as positive. […]. Below we highlight the screening results obtained for our exemplary fluorescent tracers based on Clozapine, Amitriptyline and AZD1283.
(§2) HiBiT-GPCR DNA constructs were diluted in 10 mM Tris pH 8 to a final concentration of 0.01 μg/μL, arrayed in 96-well plates and stored at −20 °C. For transfection, HEK293 cells were suspended in Opti-MEM (without phenol red) supplemented with 2% fetal bovine serum (Seradigm) and 100 units/mL penicillin–streptomycin (Gibco) at a final concentration of 220,000 cells/mL and dispensed into white 96-well plates at 90 μL/well. Subsequent transfections and screens were carried using an Agilent Bravo Automated Liquid Handling Platform. First, the 96-well HiBiT DNA arrays were diluted 25-fold in Opti-MEM (without serum or phenol red) to a final concentration of 0.0004 μg/μL and 20 μL of the diluted DNAs were transferred into new 96-well plates. Next, promoterless carrier DNA (1 μg/μL) was diluted 25-fold (0.04 μg/μL) and then dispensed into the diluted arrays at 20 μL/well. Following brief mixing, Viafect transfection reagent (Promega) diluted 16-fold into Opti-MEM was dispensed into the plates at 40 μL/well. After mixing by pipetting, plates were incubated for 10 min on the pipetting station deck. The DNA-transfection reagent complexes were then added to plates containing cells. To facilitate the screen, 10 μL of DNA-transfection reagent complexes were added in duplicates to the top 4 and bottom 4 rows, resulting in two identical 48-well arrays per plate. Plates with transfected cells were incubated for 18–20 h at 37 °C/5% CO2. A screen of each tracer across the entire library using two different concentrations requires duplicate plates of transfected cells. Depending on the number of tracers being screened, transfections can be scaled up using the same ratios. The next day, for each tracer, four 20× screening solutions in tracer dilution buffer (Promega) were prepared: two duplicates at final concentration of 20 μM and two duplicates at a final concentration of 2 μM. A competing unmodified compound was added to one of each duplicate at a final concentration of 400 μM. The four resulting solutions were diluted 4-fold in Opti-MEM without serum or phenol red to generate 5× solutions (5 µM and 0.5 µM tracer +/− 100 μM competing compound). To screen the library, a BioTek MultiFlo FX liquid dispenser was used to dispense 22.5 µL of tracer solution to the top 4 rows and 22.5 µL tracer + competing compound solution to the 4 bottom rows. Plates were briefly mixed on an orbital shaker and incubated for 1.5 h at room temperature. […]

AGTR2 = molecular target: T2, AGTR2 (Homo sapiens, UniProt P50052); test: NanoBRET screen HiBiT-AGTR2 in HEK293; type: binding; settings: AGTR2
T2 construct: purchased Promega (in-house HiBiT-GPCR construct library, NanoBRET)
T2 sequence (P50052 1-363): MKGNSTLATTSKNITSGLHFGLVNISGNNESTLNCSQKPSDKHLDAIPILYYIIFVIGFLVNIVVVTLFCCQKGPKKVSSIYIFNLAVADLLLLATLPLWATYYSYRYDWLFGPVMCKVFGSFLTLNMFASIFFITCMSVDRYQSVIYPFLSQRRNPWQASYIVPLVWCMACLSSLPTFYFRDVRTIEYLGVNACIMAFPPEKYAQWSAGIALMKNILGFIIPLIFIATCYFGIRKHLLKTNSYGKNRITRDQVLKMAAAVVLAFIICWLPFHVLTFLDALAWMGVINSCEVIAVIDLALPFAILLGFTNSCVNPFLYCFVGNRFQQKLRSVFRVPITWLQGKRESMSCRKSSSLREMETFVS
Description: as §1, §2

Structure (SMILES)	NanoBRET Fold Response (FZD9; tracer 0.1μM)	NanoBRET Fold Response (FZD9; tracer 1μM)	NanoBRET Fold Response (AGTR2; tracer 0.1μM)	NanoBRET Fold Response (AGTR2; tracer 1μM)	also measured
CN1CCN(C2=Nc3cc(Cl)ccc3Nc3ccc(CNC(=O)CCOCCOCCOCCOCCNC(=O)CCc4ccc5n4[B-](F)(F)[N+]4=C(c6ccc[nH]6)C=CC4=C5)cc32)CC1 [Clozapine-b-2-NB590]	–	–	–	–	NanoBRET Fold Response (FZD9; 0.1μM tracer): 1.02; NanoBRET Fold Response (FZD9; 1μM tracer): 1.05; NanoBRET Fold Response (AGTR2; 0.1μM tracer): 1.03; NanoBRET Fold Response (AGTR2; 1μM tracer): 0.95
CN1CCN(C2=Nc3cc(Cl)ccc3N(CC(=O)NCCOCCOCCOCCOCCNC(=O)CCc3ccc4n3[B-](F)(F)[N+]3=C(c5ccc[nH]5)C=CC3=C4)c3ccccc32)CC1 [Clozapine-c-2-NB590]	–	–	–	–	NanoBRET Fold Response (FZD9; 0.1μM tracer): 0.95; NanoBRET Fold Response (FZD9; 1μM tracer): 0.95; NanoBRET Fold Response (AGTR2; 0.1μM tracer): 0.98; NanoBRET Fold Response (AGTR2; 1μM tracer): 0.98
O=C(CCOCCOCCOCCOCCNC(=O)CCc1ccc2n1[B-](F)(F)[N+]1=C(c3ccc[nH]3)C=CC1=C2)NCCCN1CCN(C2=Nc3ccccc3Oc3ccc(Cl)cc32)CC1 [Loxapine-a-2-NB590]	1.00	1.07	1.00	1.01	–
COc1ccccc1N1CCN(CCCCN2C(=O)c3ccc(CNC(=O)CCOCCOCCOCCOCCNC(=O)CCc4ccc5n4[B-](F)(F)[N+]4=C(c6ccc[nH]6)C=CC4=C5)cc3C2=O)CC1 [NAN-190-2-NB590]	0.96	1.06	1.02	0.98	–
COc1ccccc1N1CCN(CCCCN2C(=O)c3ccc(CNC(=O)CCOCCNC(=O)c4ccc(CNC(=O)CCc5ccc6n5[B-](F)(F)[N+]5=C(c7ccc[nH]7)C=CC5=C6)cc4)cc3C2=O)CC1 [NAN-190-3-NB590]	0.94	1.18	0.99	0.90	–
O=C(CCc1ccc2n1[B-](F)(F)[N+]1=C(c3ccc[nH]3)C=CC1=C2)NCc1ccc(C(=O)NCCOCCC(=O)N[C@@H]2CC[C@@]3(O)[C@H]4Cc5ccc(O)c6c5[C@@]3(CCN4CC3CC3)[C@H]2O6)cc1 [Naltrexone-3-NB590]	1.17	0.96	1.23	0.67	–
Cc1cc2c(s1)Nc1ccccc1N=C2N1CCN(CCCNC(=O)CCOCCOCCOCCOCCNC(=O)CCc2ccc3n2[B-](F)(F)[N+]2=C(c4ccc[nH]4)C=CC2=C3)CC1 [Olanzapine-a-2-NB590]	0.95	0.95	1.12	0.87	–
O=C(CCc1ccc2n1[B-](F)(F)[N+]1=C(c3ccc[nH]3)C=CC1=C2)NCc1ccc(C(=O)NCCOCCOCCNCC(O)COc2cccc3ccccc23)cc1 (stereo not drawn) [Propranolol-3-NB590]	–	–	–	–	NanoBRET Fold Response (FZD9; 0.1μM): 0.98; NanoBRET Fold Response (FZD9; 1μM): 1.09; NanoBRET Fold Response (AGTR2; 0.1μM): 0.95; NanoBRET Fold Response (AGTR2; 1μM): 0.99
O=C(CCc1ccc2n1[B-](F)(F)[N+]1=C(c3ccc[nH]3)C=CC1=C2)NCCOCCOCCNC(=O)OCCOCCN1CCN(C2=Nc3ccccc3Sc3ccccc32)CC1 [Quetiapine-a-2-NB590]	0.84	0.78	1.08	1.05	–

From PMC8151276, “An Integrated Approach toward NanoBRET Tracers for Analysis of GPCR Ligand Engagement” (Molecules, 2021)
